Experimental data as given in the NIST ThermoML archive (doi:10.1016/j.jct.2005.05.019).
Where “and” joins values, the source holds several entries; their conditions need not be identical. Identical values can stand only once.

Conditions: Liquid; for mass density: Bellows volumetry; for vapor or sublimation pressure: Closed cell (Static) method

CC(C)C [2-methylpropane]
mass density
Conditions | 280 K | 300 K | 320 K | 340 K | 360 K | 380 K | 400 K | 420 K | 440 K
1000 kPa | 574.99 kg/m3 | 550.5 kg/m3 | 523.69 kg/m3 | – | – | – | – | – | –
2000 kPa | 576.63 kg/m3 | – | 526.51 kg/m3 | 496.95 kg/m3 | 461.05 kg/m3 | – | – | – | –
3000 kPa | 578.23 kg/m3 | 554.67 kg/m3 | 529.22 kg/m3 | 500.67 kg/m3 | 467.32 kg/m3 | 422.93 kg/m3 and 422.97 kg/m3 | – | – | –
4000 kPa | – | – | – | – | – | – | 374.9 kg/m3 | – | –
5000 kPa | 581.15 kg/m3 | 558.59 kg/m3 | 534.28 kg/m3 | 507.71 kg/m3 | 477.66 kg/m3 | 441.32 kg/m3 and 441.54 kg/m3 | 394.02 kg/m3 | – | –
10000 kPa | 587.88 kg/m3 | 567.19 kg/m3 | 545.21 kg/m3 | 521.75 kg/m3 | 496.94 kg/m3 | 468.99 kg/m3 and 469.14 kg/m3 | 438.72 kg/m3 | 404.86 kg/m3 | 366.35 kg/m3
20000 kPa | 600.12 kg/m3 | 581.58 kg/m3 | 562.64 kg/m3 | 542.79 kg/m3 | 522.77 kg/m3 | 501.27 kg/m3 and 501.58 kg/m3 | 479.65 kg/m3 | 457.86 kg/m3 | 435.91 kg/m3
30000 kPa | 610.42 kg/m3 | 593.56 kg/m3 | 576.49 kg/m3 | 558.72 kg/m3 | 541.32 kg/m3 | 522.56 kg/m3 and 522.99 kg/m3 | 504.24 kg/m3 | 486.44 kg/m3 | 469.37 kg/m3
40000 kPa | 619.36 kg/m3 | 603.71 kg/m3 | 587.85 kg/m3 | 571.75 kg/m3 | 555.78 kg/m3 | 539.38 kg/m3 | 522.85 kg/m3 | 507.08 kg/m3 | 492.27 kg/m3
50000 kPa | 627.41 kg/m3 | 612.8 kg/m3 | 597.69 kg/m3 | 582.77 kg/m3 | 568.17 kg/m3 | 552.44 kg/m3 and 552.92 kg/m3 | 537.71 kg/m3 | 523.34 kg/m3 | 510.21 kg/m3
60000 kPa | 634.74 kg/m3 | 620.94 kg/m3 | 606.61 kg/m3 | 592.49 kg/m3 | 578.92 kg/m3 | 564.45 kg/m3 | 550.04 kg/m3 | 537.02 kg/m3 | 524.88 kg/m3
70000 kPa | 641.52 kg/m3 | 628.12 kg/m3 | 614.55 kg/m3 | 601.18 kg/m3 | 588.19 kg/m3 | 574.7 kg/m3 | 561.13 kg/m3 | 548.69 kg/m3 | 537.25 kg/m3
80000 kPa | 647.64 kg/m3 | 634.84 kg/m3 | 621.94 kg/m3 | 609.11 kg/m3 | 596.75 kg/m3 | 583.67 kg/m3 | 570.85 kg/m3 | 559.13 kg/m3 | 548.44 kg/m3
90000 kPa | 653.57 kg/m3 | 641.05 kg/m3 | 628.85 kg/m3 | 616.5 kg/m3 | 604.39 kg/m3 | 592.06 kg/m3 | 579.4 kg/m3 | 568.43 kg/m3 | 558.09 kg/m3
100000 kPa | 659 kg/m3 | 646.84 kg/m3 | 635.06 kg/m3 | 622.79 kg/m3 | 611.7 kg/m3 | 599.29 kg/m3 and 599.44 kg/m3 | 587.43 kg/m3 | 576.8 kg/m3 | 567 kg/m3
120000 kPa | 669.09 kg/m3 | 657.68 kg/m3 | 646.41 kg/m3 | 634.99 kg/m3 | 624.5 kg/m3 | 612.95 kg/m3 | 601.69 kg/m3 | 591.55 kg/m3 | 582.66 kg/m3
140000 kPa | 678.21 kg/m3 | 667.21 kg/m3 | 656.55 kg/m3 | 645.72 kg/m3 | 635.8 kg/m3 | 624.62 kg/m3 | 614.21 kg/m3 | 604.56 kg/m3 | 595.99 kg/m3
160000 kPa | 686.38 kg/m3 | 676.01 kg/m3 | 665.84 kg/m3 | 655.32 kg/m3 | 645.85 kg/m3 | 635.26 kg/m3 | 625.04 kg/m3 | 616.21 kg/m3 | 608.09 kg/m3
180000 kPa | 694.06 kg/m3 | 684 kg/m3 | 674.38 kg/m3 | 664.26 kg/m3 | 655.11 kg/m3 | 644.86 kg/m3 | 635.05 kg/m3 | 626.52 kg/m3 | 618.72 kg/m3
200000 kPa | 701.06 kg/m3 | 691.43 kg/m3 | 682.01 kg/m3 | 672.25 kg/m3 | 663.39 kg/m3 | 653.7 kg/m3 and 653.25 kg/m3 | 644.07 kg/m3 | 635.99 kg/m3 | 628.4 kg/m3

Conditions | vapor or sublimation pressure [kPa]
280 K | 199.8
300 K | 369.8
